Assay results from patent US20250121087A1, “ANTIBODY-DRUG CONJUGATES COMPRISING ANTI-B7-H3 ANTIBODIES” (priority 2020, published 2025).

System: JIMT-1 xenograft
Experiment: In vivo efficacy, JIMT-1 tumor xenograft (tumor volume, body weight)
Settings: control conjugate, 5 mg/kg i.v.; BALB/c nu/nu mice
Experimental: T-20-AB2.1, T-23-AB2.1, T-Int-102-D1-5 AB2.1, and T-Int0112-AB2.1 were prepared with 20 mg scale reaction. After purification by HIC column, final samples were concentrated to 5-10 mg/ml protein.
In vivo efficacy of T-20-AB2.1 and T-23-AB2.1 was measured by tumor xenograft studies in mice. Female BALB/c nu/nu were injected subcutaneously in the right flank with suspensions of 5×10^6 of JIMT-1 cells respectively in PBS. Mice were randomized into study groups when tumors reached approximately 150 mm^3. T-DM1 (5 mg/kg) and T-20-AB2.1 and T-23-AB2.1 conjugates (0.3 mg/kg, QW X^4) were given i.v. All treatment groups consisted of 6 to 10 animals per group, and tumor size was monitored twice weekly using caliper measurement. The tumor mass was calculated as volume=(width×width×length)/2.

T-DM1
activity in JIMT-1 xenograft versus the conjugates of the disclosure: less active
